Test results published in ChEMBL document CHEMBL3774310, “Discovery of antitumor anthra[2,3-b]furan-3-carboxamides: Optimization of synthesis and evaluation of antitumor properties” (Eur J Med Chem, 2016).

How the values were obtained:
P388 [1] = assay: Antitumor activity against mouse P388 cells transplanted in DBA2/BDF1 mouse assessed as mean life span at 10 mg/kg, ip dosed daily for 5 days (reference value: 9.6 +/- 0.5 day); type: functional
P388 [2] = assay: Antitumor activity against mouse P388 cells transplanted in DBA2/BDF1 mouse assessed as mean life span at 30 mg/kg, ip dosed daily for 5 days (reference value: 9.7 +/- 1.1 day); type: functional

Structure (SMILES)	Activity (P388 [1]) [days]	Activity (P388 [2]) [days]
CS(=O)(=O)O.Cc1oc2c(O)c3c(c(O)c2c1C(=O)N1CC[C@H](N)C1)C(=O)c1ccccc1C3=O	16.3	
CS(=O)(=O)O.Cc1oc2c(O)c3c(c(O)c2c1C(=O)N1CC[C@@H](N)C1)C(=O)c1ccccc1C3=O		11.8
